Assay results: patent US8895733B2 (Novartis AG, priority 2010, dated 2014)

biological target: T1, Nav 1.7 (Homo sapiens, UniProt Q15858); assay: Whole-cell voltage clamp electrophysiology, automated patch clamp (marker c in Table of Examples); format: cell-based; conditions: marker c = Automated patch clamp data; read-out: Nav 1.7 activity
T1 construct: expressed in transfected cells
How it was run: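 Human NaV1.7 currents were recorded by whole-cell automated patch clamp, on IonWorks Quattro or another automated platform, typically in perforated-patch configuration. The stimulus protocol was designed to probe block mainly of the inactivated state, with a typical sweep stepping from about −65 mV holding to −10 mV, then −100 mV.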

T1 sequence (Q15858 whole entry): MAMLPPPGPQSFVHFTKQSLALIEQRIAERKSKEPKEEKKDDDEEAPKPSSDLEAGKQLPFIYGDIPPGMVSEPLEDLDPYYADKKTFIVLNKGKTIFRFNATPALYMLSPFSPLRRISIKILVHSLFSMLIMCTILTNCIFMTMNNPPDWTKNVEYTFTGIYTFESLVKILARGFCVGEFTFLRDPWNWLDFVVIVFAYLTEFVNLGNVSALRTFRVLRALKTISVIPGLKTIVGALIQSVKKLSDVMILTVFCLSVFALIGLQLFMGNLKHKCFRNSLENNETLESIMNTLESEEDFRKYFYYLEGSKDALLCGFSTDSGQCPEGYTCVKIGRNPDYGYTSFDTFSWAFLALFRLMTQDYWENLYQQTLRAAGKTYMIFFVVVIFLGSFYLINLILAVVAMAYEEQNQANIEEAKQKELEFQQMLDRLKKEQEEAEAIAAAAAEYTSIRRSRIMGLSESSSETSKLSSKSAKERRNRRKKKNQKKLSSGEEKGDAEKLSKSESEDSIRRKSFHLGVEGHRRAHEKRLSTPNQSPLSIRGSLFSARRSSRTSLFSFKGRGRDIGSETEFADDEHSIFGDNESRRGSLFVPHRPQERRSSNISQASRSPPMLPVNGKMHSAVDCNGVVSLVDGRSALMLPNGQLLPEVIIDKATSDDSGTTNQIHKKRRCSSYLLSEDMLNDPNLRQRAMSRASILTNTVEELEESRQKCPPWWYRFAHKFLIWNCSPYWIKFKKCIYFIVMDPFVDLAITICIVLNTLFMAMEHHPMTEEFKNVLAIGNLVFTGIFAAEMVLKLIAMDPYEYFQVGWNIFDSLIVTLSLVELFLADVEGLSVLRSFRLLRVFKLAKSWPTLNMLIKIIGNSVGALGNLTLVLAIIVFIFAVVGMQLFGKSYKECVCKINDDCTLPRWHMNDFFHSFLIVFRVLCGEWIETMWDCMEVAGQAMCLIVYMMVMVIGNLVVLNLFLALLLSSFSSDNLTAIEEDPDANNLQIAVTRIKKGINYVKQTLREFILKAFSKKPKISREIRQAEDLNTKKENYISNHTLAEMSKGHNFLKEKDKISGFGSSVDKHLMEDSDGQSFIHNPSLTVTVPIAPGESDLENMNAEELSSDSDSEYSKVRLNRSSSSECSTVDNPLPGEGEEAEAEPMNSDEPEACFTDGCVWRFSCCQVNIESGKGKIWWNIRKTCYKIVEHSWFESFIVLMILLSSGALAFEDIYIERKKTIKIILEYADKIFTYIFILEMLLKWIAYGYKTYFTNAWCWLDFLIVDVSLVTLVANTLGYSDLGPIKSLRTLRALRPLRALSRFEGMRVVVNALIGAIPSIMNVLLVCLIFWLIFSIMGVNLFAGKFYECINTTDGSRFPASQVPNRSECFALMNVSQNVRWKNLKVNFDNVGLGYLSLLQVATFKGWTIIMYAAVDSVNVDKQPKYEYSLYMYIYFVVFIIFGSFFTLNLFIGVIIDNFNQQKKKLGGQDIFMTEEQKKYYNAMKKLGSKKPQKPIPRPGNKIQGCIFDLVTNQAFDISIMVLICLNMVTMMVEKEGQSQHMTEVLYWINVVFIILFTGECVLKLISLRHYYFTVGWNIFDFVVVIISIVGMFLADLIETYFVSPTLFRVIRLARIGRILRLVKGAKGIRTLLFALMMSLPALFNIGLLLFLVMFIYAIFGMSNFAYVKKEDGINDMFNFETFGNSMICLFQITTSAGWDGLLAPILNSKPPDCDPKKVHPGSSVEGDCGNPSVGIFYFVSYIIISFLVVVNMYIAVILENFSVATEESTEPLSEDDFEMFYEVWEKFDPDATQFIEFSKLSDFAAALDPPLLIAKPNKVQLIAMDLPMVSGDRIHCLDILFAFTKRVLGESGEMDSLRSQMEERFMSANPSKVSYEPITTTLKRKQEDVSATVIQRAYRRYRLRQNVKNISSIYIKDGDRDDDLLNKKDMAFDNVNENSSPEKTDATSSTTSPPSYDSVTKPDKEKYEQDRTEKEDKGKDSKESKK

Structure (SMILES)	IC50 [nM]
CCS(=O)(=O)N1CC(c2nc(-c3nc(N)nc(N(C)c4ccccc4)n3)no2)C1 [Example 309, 6-{5-[1-(ethanesulfonyl)azetidin-3-yl]-1,2,4-oxadiazol-3-yl}-2-N-methyl-2-N-phenyl-1,3,5-triazine-2,4-diamine]	1730
Nc1nc(Nc2cccc(F)c2)nc(-c2noc(C(=O)N[C@@H]3CCOC3)n2)n1 [Example 233, 3-{4-amino-6-[(3-fluorophenyl)amino]-1,3,5-triazin-2-yl}-N-[(3R)-oxolan-3-yl]-1,2,4-oxadiazole-5-carboxamide]	5660
CC(C)OC[C@@H]1[C@H]2CN(c3nc(-c4nc(N)nc(N(C)c5ccccc5)n4)no3)C[C@@H]12 [Example 397, 2-N-methyl-2-N-phenyl-6-{5-[6-[(propan-2-yloxy)methyl]-3-azabicyclo[3.1.0]hexan-3-yl]-1,2,4-oxadiazol-3-yl}-1,3,5-triazine-2,4-diamine]	3940
CN(c1ccccc1)c1nc(N)nc(-c2noc(-c3ccnn3C)n2)n1 [Example 253, 2-N-methyl-6-[5-(1-methyl-1H-pyrazol-5-yl)-1,2,4-oxadiazol-3-yl]-2-N-phenyl-1,3,5-triazine-2,4-diamine]	4560
CCC(C)S(=O)(=O)N1CCC(c2nc(-c3nc(N)nc(N(C)c4ccccc4)n3)no2)CC1 (stereo not drawn) [Example 508, 6-{5-[1-(butane-2-sulfonyl)piperidin-4-yl]-1,2,4-oxadiazol-3-yl}-2-N-methyl-2-N-phenyl-1,3,5-triazine-2,4-diamine]	2430
CN(c1ccccc1)c1nc(N)nc(-c2noc(C3CCN(CCC(F)(F)F)C3)n2)n1 (stereo not drawn) [Example 204, 2-N-methyl-2-N-phenyl-6-{5-[1-(3,3,3-trifluoropropyl)pyrrolidin-3-yl]-1,2,4-oxadiazol-3-yl}-1,3,5-triazine-2,4-diamine]	> 7830
CCC(C)S(=O)(=O)N1CCC(c2nc(-c3nc(N)nc(Nc4ccccc4)n3)no2)CC1 (stereo not drawn) [Example 514, 6-{5-[1-(butane-2-sulfonyl)piperidin-4-yl]-1,2,4-oxadiazol-3-yl}-2-N-phenyl-1,3,5-triazine-2,4-diamine]	1730
CN(c1ccccc1)c1nc(N)nc(-c2noc(-c3ccc(C(=O)NCC(F)(F)F)cn3)n2)n1 [Example 292, 6-(3-{4-amino-6-[methyl(phenyl)amino]-1,3,5-triazin-2-yl}-1,2,4-oxadiazol-5-yl)-N-(2,2,2-trifluoroethyl)pyridine-3-carboxamide]	2710

Continued, values first:

IC50 [nM]	Structure (SMILES)
1450	CCOc1ncccc1-c1nc(-c2nc(N)nc(N(C)c3ccccc3)n2)no1 [Example 419, 6-[5-(2-ethoxypyridin-3-yl)-1,2,4-oxadiazol-3-yl]-2-N-methyl-2-N-phenyl-1,3,5-triazine-2,4-diamine]
702	Nc1nc(Nc2ccccc2)nc(-c2noc(N3C[C@@H]4[C@@H](COCC(F)(F)F)[C@@H]4C3)n2)n1 [Example 390, 2-N-phenyl-6-{5-[6-[(2,2,2-trifluoroethoxy)methyl]-3-azabicyclo[3.1.0]hexan-3-yl]-1,2,4-oxadiazol-3-yl}-1,3,5-triazine-2,4-diamine]
406	Nc1nc(Nc2cccc(F)c2)nc(-c2noc(N3CCCCC3)n2)n1 [Example 236, 2-N-(3-fluorophenyl)-6-[5-(piperidin-1-yl)-1,2,4-oxadiazol-3-yl]-1,3,5-triazine-2,4-diamine]
290	CN(c1ccccc1)c1nc(N)nc(-c2noc(-c3ccc(S(=O)(=O)CCC(F)(F)F)nc3)n2)n1 [Example 454, 2-N-methyl-2-N-phenyl-6-(5-{6-[(3,3,3-trifluoropropane)sulfonyl]pyridin-3-yl}-1,2,4-oxadiazol-3-yl)-1,3,5-triazine-2,4-diamine]
289	CN(c1ccc(F)cc1)c1nc(N)nc(-c2noc(-c3ncccc3F)n2)n1 [Example 474, 2-N-(4-fluorophenyl)-6-[5-(3-fluoropyridin-2-yl)-1,2,4-oxadiazol-3-yl]-2-N-methyl-1,3,5-triazine-2,4-diamine]
261	CN(c1cccc(Cl)c1)c1nc(N)nc(-c2noc(-c3ccc(OCC(F)(F)F)nc3)n2)n1 [Example 409, 2-N-(3-chlorophenyl)-2-N-methyl-6-{5-[6-(2,2,2-trifluoroethoxy)pyridin-3-yl]-1,2,4-oxadiazol-3-yl}-1,3,5-triazine-2,4-diamine]
172	Nc1nc(Nc2cccc(F)c2)nc(-c2noc(-c3ncccc3F)n2)n1 [Example 240, 2-N-(3-fluorophenyl)-6-[5-(3-fluoropyridin-2-yl)-1,2,4-oxadiazol-3-yl]-1,3,5-triazine-2,4-diamine]
7	Nc1nc(Nc2ccccc2)nc(-c2noc(-c3ccc(OCCC(F)(F)F)nc3)n2)n1 [Example 363, 2-N-phenyl-6-{5-[6-(3,3,3-trifluoropropoxy)pyridin-3-yl]-1,2,4-oxadiazol-3-yl}-1,3,5-triazine-2,4-diamine]
4	Nc1nc(Nc2ccccc2)nc(-c2noc(-c3ccc(COCC(F)(F)F)cn3)n2)n1 [Example 350, 2-N-phenyl-6-(5-{5-[(2,2,2-trifluoroethoxy)methyl]pyridin-2-yl}-1,2,4-oxadiazol-3-yl)-1,3,5-triazine-2,4-diamine]

same assay, conditions: marker c: Automated patch clamp data; read-out: Nav 1.7 activity

IC50 [nM]	Structure (SMILES)
925	COc1ncccc1-c1nc(-c2nc(N)nc(N(C)c3ccccc3)n2)no1 [Example 76, 6-[5-(2-Methoxy-pyridin-3-yl)-[1,2,4]oxadiazol-3-yl]-N-methyl-N-phenyl-[1,3,5]triazine-2,4-diamine]
1270	COc1cccc(-c2nc(-c3nc(N)nc(N(C)c4cccc(F)c4)n3)no2)c1 [Example 85, N-(3-Fluoro-phenyl)-6-[5-(3-methoxy-phenyl)-[1,2,4]oxadiazol-3-yl]-N-methyl-[1,3,5]triazine-2,4-diamine]
223	CN(c1ccccc1)c1nc(N)nc(-c2noc(N3CCC(CSc4ccccc4)CC3)n2)n1 [Example 176, 2-N-methyl-2-N-phenyl-6-(5-{4-[(phenylsulfanyl)methyl]piperidin-1-yl}-1,2,4-oxadiazol-3-yl)-1,3,5-triazine-2,4-diamine]
9080	CC(C)S(=O)(=O)CC1CCN(c2nc(-c3nc(N)nc(N(C)c4ccccc4)n3)no2)CC1 [Example 181, 2-N-methyl-2-N-phenyl-6-(5-{4-[(propane-2-sulfonyl)methyl]piperidin-1-yl}-1,2,4-oxadiazol-3-yl)-1,3,5-triazine-2,4-diamine]
> 7710	CC(C)[S+]([O-])CC1CCN(c2nc(-c3nc(N)nc(N(C)c4ccccc4)n3)no2)CC1 (stereo not drawn) [Example 180, 2-N-methyl-2-N-phenyl-6-(5-{4-[(propane-2-sulfinyl)methyl]piperidin-1-yl}-1,2,4-oxadiazol-3-yl)-1,3,5-triazine-2,4-diamine]
4910	CN(c1ccccc1)c1nc(N)nc(-c2noc(-c3ccc[nH]3)n2)n1 [Example 60, N-Methyl-N-phenyl-6-[5-(1H-pyrrol-2-yl)-[1,2,4]oxadiazol-3-yl]-[1,3,5]triazine-2,4-diamine]
67	CN(c1nc(N)nc(-c2noc(-c3ccc(OCC4CC4)nc3)n2)n1)c1ccccc1F [Example 134, 6-{5-[6-(cyclopropylmethoxy)pyridin-3-yl]-1,2,4-oxadiazol-3-yl}-2-N-(2-fluorophenyl)-2-N-methyl-1,3,5-triazine-2,4-diamine]
